Here are results for four molecules from patent US4822791A, “Pharmaceutical compositions of-2,2-1,1-[bis-2,2'-(3,1-benzoxazin-4-one)9 ethylenes” (priority 1984, dated 1989).

The target in series [1] is T1, hyaluronidase (Bos taurus, UniProt Q2YDK3).
T1 sequence (Q2YDK3 36-553): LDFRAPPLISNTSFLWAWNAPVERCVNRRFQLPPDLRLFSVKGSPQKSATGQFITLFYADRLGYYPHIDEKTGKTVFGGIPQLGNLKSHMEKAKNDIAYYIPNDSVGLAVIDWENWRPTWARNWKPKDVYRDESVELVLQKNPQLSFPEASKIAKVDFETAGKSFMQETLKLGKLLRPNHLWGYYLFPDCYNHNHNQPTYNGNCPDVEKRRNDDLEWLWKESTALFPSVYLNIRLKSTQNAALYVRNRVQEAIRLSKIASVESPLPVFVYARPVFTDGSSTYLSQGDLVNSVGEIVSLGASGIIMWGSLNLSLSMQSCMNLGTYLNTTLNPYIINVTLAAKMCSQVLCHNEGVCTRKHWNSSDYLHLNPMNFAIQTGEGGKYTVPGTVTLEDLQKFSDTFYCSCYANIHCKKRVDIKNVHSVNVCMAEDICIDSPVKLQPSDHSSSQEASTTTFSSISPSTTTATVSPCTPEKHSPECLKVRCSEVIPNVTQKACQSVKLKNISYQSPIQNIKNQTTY
In words: Anti-hyaluronidase activity (modified Morgan-Elson method). The format is biochemical. The settings on record: hyaluronidase 340NF unit/ml; activating agent Compound 48/80 or CaCl2; read-out: IC50.
Procedure: A buffer soluticn of hyaluronidase (0.1 ml) was taken in a test tube and 0.2 ml each of the buffer solution of various compounds in various concentrations was added, and the mixture was preincubated at 37° C. for 20 minutes. Then, an activating agent (Compound 48/80 or CaCl2) (0.2 ml) was added to make the total amount 0.5 ml, which was incubated at 37° C. for 20 minutes. Then, potassium hyaluronate buffer solution (0.5 ml) was added, and the mixture was incubated at 37° C. for 40 minutes. After cooling, the mixture was treated with aqueous solution of 0.4N NaOH (0.2 ml) and neutralized to stop the reaction. The resulting product was subjecred to measurement of OD585 by the modified Morgan-Elson Method. […] (The final ccncentration of hyaluronidase was 340NF unit/ml.) [formula]

Series [2] concerns mast cell in abdominal cavity. Nature of the series: Release of histamine by antigen DNP-Ascaris, mast cell in abdominal cavity (Test Example 12). The format is cell-based, rat. The following applies: Rattus norvegicus, Mast cell; 10^-3 M; read-out: Effect on release of histamine by antigen DNP-Ascaris, Mast cell in abdominal cavity (control 100). As to the method: (§1) Collection of mast cells in abdominal cavity and thoracic cavity and sensitizing of cells were conducted in similar manners to those in Test Example 10, respectively.
(§2) (1) Preparation of DNP-Ascaris antiserum was conducted in manner similar to that in Test Example 6.
(§3) This is conducted in amanner similar to that in Test Example 10.
(§4) This is conducted in a manner similar to that in Test Example 10.

In series [3] the test system is Mast cell in thoracic cavity. In words: Release of histamine by antigen DNP-Ascaris, mast cell in thoracic cavity (Test Example 12). In kind it is cell-based. The settings on record: Rattus norvegicus, 10^-3 M, read-out: Effect on release of histamine by antigen DNP-Ascaris, Mast cell in thoracic cavity (control 100). The method, then: as §1, §2, §3, §4
Series [4] in a line: Acute toxicity LD50 in mice (Test Example 8). The settings on record: mouse, in vivo, one week, Probit method. The method, then:
(§5) ddy-Strain mice (male) and Wistar strain rats were used to obtain LD50 values.
(§6) According to the ordinary procedure, suspension or solution of test sample was administered to the animals. From the number of the died animals until one week after the administration, LD50 values were obtained by Probit method.

In series [5] the test system is experimental ulcer model (Shay). Nature of the series: Anti-ulcer activity in experimental ulcer model (Shay). In kind it is in vivo, Wistar strain male rats. As to the method:
Using 5 eight-week old Wistar strain male rats of 1 group, the rats were previously fasted for […]. The compound of an amount proportionate to the body weight based on the body weight after fasting was administered intraduodenally or intraperitoneally.
Each test compound was evenly suspended or dissolved in an aqueous solution of 0.5% CMC ccntaining 0.1% Tween 80, and administered at the rate of 0.5 ml per 100 g of body weight of the animal. To the controls, only the solvent was administered.
Test was carried out in accordance with Shay's method. After 48 hours' fasting, 5 animals per group were subjected to laparotomy under ether anesthesia, the tract between pylorus of stomach and duodenum was ligated, and the solution of the compound was administered intraduodenally (id) or intraperitoneally (ip), followed by suturing the laparotomy part. Eight hours after administration of the compound liquid, each animal was sacrificed by ether anesthesia and stomach was removed. Then, evaluation on the ulcer condition on the inner surface of stomach, and determination of the amount of gastric juice, of acidity by alkali titration, and of pepsin titer based on substrate of hemoglovin were made on the stored gastric juice. With regard to the acidity, gastric juice amount, and pepsin titer, the results were shown in inhibition rate (%) based on the average value of the control groups.

A short description of series [6]: Acute toxicity LD50 in rats (Test Example 8). The following applies: rat, in vivo, po; one week; Probit method; read-out: LD50 value (mg/kg body weight) Rat p.o. As to the method:
as §5, §6

In series [7] the test system is passive cutaneous anaphylaxis (PCA). In words: Anti-passive cutaneous anaphylaxis (PCA) activity in rats (Test Example 2). In kind it is in vivo, Wistar strain rats. The following applies: for inhibition in vivo at 100 mg/kg: Rattus norvegicus, 100 mg/kg PO, N 10. In a few lines: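 Antiserum from Wistar rats sensitized with ovalbumin (alum plus B. pertussis adjuvant) was diluted 16- or 32-fold and injected into dorsal skin of naive rats, which were held 48 h. Compound was given orally 1 h before i.v. ovalbumin plus Evans blue.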

The test system of series [8] is anaphylaxis reaction to inhalated antigen. Nature of the series: Antigen inhalation test on passive sensitized guinea pig (experimental asthma model). The format is in vivo. The following applies: 5 mg/kg iv.
Procedure: The test compound and Tranilast were respectively suspended at the time of use in 5% gum arabic solution containing 0.1% Tween 80 at the rate of 40 mg/ml, and were perorally administered at the rate of 0.5 ml per 100 g body weight of the animal.
DSCG was dissolved at the time of use in physiological saline solultion for injection at the rate of 5.0 mg/ml, and was intravenously injected at the rate of 0.1 ml per 100 g body weight of the animal.
Anti-ovalbumin rabbit serum diluted with physiological saline solution for injection so as tc contain anti-ovalbumin rabbit antibody at the rate of 0.187 mg N/ml was intravenously administered to guinea pig at the rate of 0.1 ml per 100 g of body weight and it was passively sensitized.
Twenty-four hours later, the suspension of the compound prepared in (1) above was perorally or intravenously administered to the animal. The animal was put in the inhalation chamber one hour after the administration in case of the peroral administration and five minutes after the administration in case of the intravenous administration, and 2% physiological saline solution of antigen ovalbumin was inhaled by spraying. Over 10 minutes' period from the time immediately after the forced inhalation, the time until its fall attributed to anaphylaxis reaction was recorded, and the numbers of alive and dead animals after lapse of 10 minutes were also counted.
Series [9] deals with mast cell in abdominal cavity. In words: Histamine release by antigen DNP-Ascaris, mast cell in abdominal cavity (Test Example 10). In kind it is cell-based, rat. The following applies: 10^-3 M; for activity at 1000 µM: Rattus norvegicus, Mast cell, 20 min, read-out: released amount of histamin, Mast cell in abdominal cavity (control shown as 100). As to the method:
(§7) Examination was made cn the activity of inhibition of histamine release from mast cell by antigen-antibody reaction.
(§8) Preparation of DNP-Ascaris antiserum was conducted in a manner similar to that in Test Example 6.
(§9) Heparin-containing PBS was injected into the abdominal cavity of rat which was sacrificed by bleeding, after which the abdomen was well massaged, and then peritoneal exudate was sampled. The same liquid was also injected into the thoracic cavity, and after shaking the breast for several minutes, the thoracic cavity liquid was sampled, which was purified by washing several times by centrifugation. The number of the mast cells contained in this liquid was measured and adjusted to a designated concentration. (Mast cells, 8.0×10^4 cells/ml).
To the cell suspension (4 ml, 9×10^5 cells/ml), anti-DNP-Ascaris rat serum (PCA titer, 32) (4 ml) was added, and the mixture was incubated in the presence of heparin at 37° C. for 2.5 hours. To the solution, 70 microgramms/ml phosphatidylserin PBS solution (0.5 ml) was added and the mixture was incubated at 37° C. for 12 minutes, after which 140 microgramms/ml antigen DNP-Ascaris PBS solution (0.5 ml) was added and the mixture was incubated further for 20 minutes.
After completion of the reaction, the reaction liquid was centrifuged (500 G, 10 min.) to obtain supernatant solution, and histamin in the supernatant solution was subjected to fluorometry by orthophthalal aldehyde method. The released amount of histamin in the control was shown as 100.

Series [10] deals with hyaluronidase. The settings on record: known from the literature; cited from earlier work.
For series [11], the system named is mast cell in abdominal cavity. Nature of the series: Release of histamine by dextran (T-500), mast cell in abdominal cavity (Test Example 12). In kind it is cell-based, rat. The settings on record: Rattus norvegicus, Mast cell, 0.25 h, read-out: Effect on release of histamine by dextran (T-500), Mast cell in abdominal cavity (control 100). The method, then:
as §1
(§10) The sample solution was treated with 105 microgramms/ml phosphatidylserin PBS solution (0.5 ml) and incubated at 37° C. for 30 minutes, followed by addition of 25 mg/ml dextran (T-500) PBS solution (0.5 ml) and further incubation for 15 minutes.
as §4

In series [12] the test system is passive cutaneous anaphylaxis (PCA). Nature of the series: Anti-passive cutaneous anaphylaxis activity (PCA) in rats (Test Example 9). In kind it is in vivo. The following applies: Rattus norvegicus, po, 10 animals. As to the method: Wistar strain rats were sensitized with ovalbumin using aluminium hydroxide gel and Bordetella Pertussis vaccine as adjuvants. Dilutions of antiserum (16-fold and 32-fold) obtained by collecting blood samples 14 days later were administered subcutaneously in the dorsal skin of the rats of the same strain at the rate of 0.1 ml per spot, and the rats were grown for 48 hours. One hour after peroral administration of the sample solution, a mixture of antigen ovalbumin and Evans-blue dye was administered to the tail venous of the animal according to the ordinary procedure. Thirty minutes later, the animals were sacrificed by exsanguination, and the areas of blue spots (long diameter×short diameter) eliciting on the portion of the antiserum injection at the dorsal skin were measured to obtain the rate of inhibition based on the average value shown by the control animals.
This test was conducted in a manner similar to that in Test Example 2, except that the dilutions of antiserum were 12- and 24-folds.

The test system of series [13] is Mast cell in thoracic cavity. Nature of the series: Release of histamine by dextran (T-500), mast cell in thoracic cavity (Test Example 12). The format is cell-based, rat. The following applies: Rattus norvegicus, Mast cell, 0.25 h; 10^-3 M; read-out: Effect on release of histamine by dextran (T-500), Mast cell in thoracic cavity (control 100). As to the method:
as §1, §10, §4

Series [14] has as its system Mast cell in thoracic cavity. Nature of the series: Histamine release by antigen DNP-Ascaris, mast cell in thoracic cavity (Test Example 10). In kind it is cell-based. The following applies: Rattus norvegicus, 20 min, 10^-3 M, read-out: released amount of histamin, Mast cell in thoracic cavity (control shown as 100). The method, then: as §7, §8, §9
To the cell suspension (4 ml, 9×10^5 cells/ml), anti-DNP-Ascaris rat serum (PCA titer, 32) (4 ml) was added, and the mixture was incubated in the presence of heparin at 37° C. for 2.5 hours. To the solution, 70 microgramms/ml phosphatidylserin PBS solution (0.5 ml) was added and the mixture was incubated at 37° C. for 12 minutes, after which 140 microgramms/ml antigen DNP-Ascaris PBS solution (0.5 ml) was added and the mixture was incubated further for 20 minutes. […]

Series [15] in a line: Acute toxicity LD50 in ICR mice (Test Example 11). The settings on record: mouse, in vivo, one week, Provit method. As to the method:
As test animals, ICR-strain mice (male) were used. According to the conventional procedure, suspension or solution of test sample was administered to the animals. From the number of the died animals until one week after the administration, LD50 values were obtained by Provit method.

Setting [16] is: read-out: Inhibition, Anti-serum Dilution: × 12.
Where [17] appears, read: read-out: Inhibition, Anti-serum Dilution: × 24.

pIC50: −log10 of the molar value. “And” between values parts separate entries of the source, which are not always exact repeats. Equal values may be shown once. Read-outs that look alike come from different tables or passages of the source.

With `COc1ccc(C=C(C(=O)Nc2cc(Cl)ccc2C(=O)O)C(=O)Nc2cc(Cl)ccc2C(=O)O)cc1OC` [Compound 21], the negative-log IC50 (pIC50) at hyaluronidase [1] was 4.82. In addition, the results for the activity at 1000 µM in series [2] and in series [3] were 48.3% and 73%, respectively.
As for `COc1ccc(C=C(C(=O)Nc2ccccc2C(=O)O)C(=O)Nc2ccccc2C(=O)O)cc1OC` [Compound 20, 2,2'-[[2-(3,4-dimethoxy)phenylmethylene-1,3-dioxo-1,3-propanediyl]diimino]bisbenzoic acid], the LD50 at 168 h is 225 mg/kg in series [4] (iv, read-out: LD50 value (mg/kg body weight) Mouse i.v.); greater than 10000 mg/kg in series [4] (po, read-out: LD50 value (mg/kg body weight) Mouse p.o.); greater than 10000 mg/kg in series [6]. The “Inhibition % Gastric Acidity” value in [5] (id 100 mg/kg) is given as 64.5%; in [5] (id 200 mg/kg) it was 99.5%; in series [5] (ip 10 mg/kg), 52.3%; in series [5] (ip 50 mg/kg), 88.0%. In addition, the “Inhibition % secretion amount of gastric juice” value in series [5] (id 100 mg/kg) is 28.1%; in [5] (id 200 mg/kg), 59.0%; in [5] (ip 10 mg/kg), 26.3%; in series [5] (ip 50 mg/kg), 70.9%. Moreover, the “Inhibition % total pepsin titer” value in [5] (id 100 mg/kg) was found to be 42.5%; in series [5] (id 200 mg/kg), 69.3%; in series [5] (ip 10 mg/kg), 31.4%; in series [5] (ip 50 mg/kg), 60.7%. Also, the pIC50 on hyaluronidase [1] is 4.40.
As to `O=C(O)c1cc(=O)c2c(OCC(O)COc3cccc4oc(C(=O)O)cc(=O)c34)cccc2o1` [DSCG, disodium cromoglicate, reference compound], the inhibition in vivo at 100 mg/kg in series [7] (read-out: Average Inhibition Rate (%) Antiserum Dilution: × 16) stood at 0.1%; in [7] (read-out: Average Inhibition Rate (%) Antiserum Dilution: × 32), 0.3%; in series [12] (setting [16]), 0%; in series [12] (setting [17]), 0%. For the same molecule, the “anti-PCA activity by peroral administration (in words)” value in series [7] (peroral) is reported as “no activity”. The “Extended rate (%)” value in [8] was 23.9%. For the same molecule, the “Average time for falling Mean ± S.E.” value in [8] (N 5) was determined as 192.5 ± 20.3 s. For the same molecule, the “Required time (sec.) for falling and Number of death (#), single animals” value in [8] (N 5, observed 10 minutes, # shows death) was 142 s and 188 s and 199 s and 241 s and > 600 s. In addition, the activity at 1000 µM stood at 76.8% in series [9]; 76.8% in series [2]; 60% in series [11] (10^-3 M); 105% in series [3]; 42.2% in series [13]; 105% in series [14]. Besides, the “effect on hyaluronidase activity (in words)” value in the series on hyaluronidase [10] is listed as “inhibit hyaluronidase activity”. For the same molecule, the activity at 100 µM in series [11] (10^-4 M) turned out to be 52.9%.
Regarding `COC(=O)c1ccccc1NC(=O)C(=Cc1ccccc1)C(=O)Nc1ccccc1C(=O)OC` [Compound 51], in series [9], the “inhibition of release of histamine from mast cells in abdominal and thoracic cavity (in words)” value is recorded as “action of inhibiting release of histamine”. Moreover, the activity at 1000 µM came out at 50.4% in [9] and 75.1% in series [14]. The LD50 at 168 h in [15] (po, peroral, read-out: LD50 Value (mg/kg of body weight) Peroral administration) is no less than 8000 mg/kg; in [15] (intravenous, read-out: LD50 Value (mg/kg of body weight) Intravenous administration), 238 mg/kg. The inhibition in vivo at 10 mg/kg in [12] (setting [16]) was 28.1%; in [12] (setting [17]), 30.3%. The inhibition in vivo at 50 mg/kg in series [12] (setting [16]) was 34.2%; in series [12] (setting [17]), 37.5%.
